System: subjects with moderate-to-severe plaque psoriasis
Experiment: Safety, adverse events, Example 2 through Week 56
Type: in vivo, human
Design: Participants experiencing 1 or more AEs: unit not given here
Conditions: for Subjects with 1 or more Adverse events / Subjects with 1 or more Adverse events: Alanine aminotransferase increased / Subjects with 1 or more Adverse events: Arthralgia / Subjects with 1 or more Adverse events: Aspartate aminotransferase increased / Subjects with 1 or more Adverse events: Bronchitis / Subjects with 1 or more Adverse events: COVID-19 / Subjects with 1 or more Adverse events: Cough / Subjects with 1 or more Adverse events: Diarrhea / Subjects with 1 or more Adverse events: Headache / Subjects with 1 or more Adverse events: Influenza / Subjects with 1 or more Adverse events: Nasopharyngitis / Subjects with 1 or more Adverse events: Upper respiratory tract infection / Subjects with 1 or more Adverse events: Urinary tract infection / Subjects with 1 or more Serious adverse events / Subjects with 1 or more Serious adverse events: COVID-19 / Subjects with 1 or more Serious adverse events: Cerebrovascular accident / Subjects with 1 or more Serious adverse events: Coronary artery disease / Subjects with 1 or more Serious adverse events: Diverticulitis / Subjects with 1 or more Serious adverse events: Foot deformity / Subjects with 1 or more Serious adverse events: Infected cyst / Subjects with 1 or more Serious adverse events: Intervertebral disc protrusion / Subjects with 1 or more Serious adverse events: Ligament injury / Subjects with 1 or more Serious adverse events: Non-cardiac chest pain / Subjects with 1 or more Serious adverse events: Suicide attempt / Subjects with 1 or more Serious adverse events: Tonsillar hypertrophy / Subjects with 1 or more Serious adverse events: Uterine leiomyoma / Subjects with 1 or more Serious adverse events: Ventricular dysfunction / Subjects with 1 or more treatment-emergent adverse events leading to discontinuation of study agent: number of subjects
From the text: The LTE safety analysis was based on randomized participants in Example who entered the present long-term extension study and received at least one dose of study intervention (including a partial dose) during the study period.

[1] = Placebo → 100 mg QD, through Week 56
[2] = Week 16 through Week 56, dose group = column
[3] = combined group, long-term extension

CC(=O)NCCCC[C@@H]1NC(=O)[C@H](Cc2c[nH]c3c(C)cccc23)NC(=O)[C@H]([C@@H](C)O)NC(=O)[C@H](CC(N)=O)NC(=O)[C@@H](NC(C)=O)C(C)(C)SSC(C)(C)[C@@H](C(=O)N[C@@H](Cc2ccc(OCCN)cc2)C(=O)N[C@@H](Cc2ccc3ccccc3c2)C(=O)NC2(C(=O)N[C@@H](CCC(=O)O)C(=O)N[C@@H](CC(N)=O)C(=O)N[C@@H](Cc3cccnc3)C(=O)N(C)CC(N)=O)CCOCC2)NC1=O [IL-23 receptor antagonist peptide, Ac-[Pen]*-N-T-[W(7-Me)]-[Lys(Ac)]-[Pen]*-Phe[4-(2-aminoethoxy)]-[2-Nal]-[THP]-E-N-[3-Pal]-Sarc-NH2 (*[Pen]-[Pen]* formdisulfidebond)]
9.7%: Upper respiratory tract infection [3]
0: Pyrexia: number of subjects [1] | Rash pruritic: number of subjects [1] | Renal mass: number of subjects [1] | Rhinorrhoea: number of subjects [1] | Seasonal allergy: number of subjects [1] | Skin laceration: number of subjects [1] | Skin papilloma: number of subjects [1] | Social circumstances: number of subjects [1] | Steatohepatitis: number of subjects [1] | Suicide attempt: number of subjects [1] | Sunburn: number of subjects [1] | Thrombocytopenia: number of subjects [1] | Thrombocytosis: number of subjects [1] | Tonsillar hypertrophy: number of subjects [1] | Tooth fracture: number of subjects [1] | Type 2 diabetes mellitus: number of subjects [1] | Urinary tract disorder: number of subjects [1] | Uterine leiomyoma: number of subjects [1] | Ventricular dysfunction: number of subjects [1] | Vertigo: number of subjects [1] | Vitamin D deficiency: number of subjects [1] | Subjects with 1 or more Adverse events: Arthralgia (through Week 56, 25 mg BID) | Subjects with 1 or more Adverse events: Cough (through Week 56, 25 mg BID) | Subjects with 1 or more Serious adverse events: COVID-19 (through Week 56, 25 mg BID) | Subjects with 1 or more Serious adverse events: Cerebrovascular accident (through Week 56, 25 mg BID) | Subjects with 1 or more Serious adverse events: Coronary artery disease (through Week 56, 25 mg BID) | Subjects with 1 or more Serious adverse events: Diverticulitis (through Week 56, 25 mg BID) | Subjects with 1 or more Serious adverse events: Foot deformity (through Week 56, 25 mg BID) | Subjects with 1 or more Serious adverse events: Infected cyst (through Week 56, 25 mg BID) | Subjects with 1 or more Serious adverse events: Intervertebral disc protrusion (through Week 56, 25 mg BID) | Subjects with 1 or more Serious adverse events: Non-cardiac chest pain (through Week 56, 25 mg BID) | Subjects with 1 or more Serious adverse events: Suicide attempt (through Week 56, 25 mg BID) | Subjects with 1 or more Serious adverse events: Uterine leiomyoma (through Week 56, 25 mg BID) | Subjects with 1 or more Adverse events: Influenza (through Week 56, 25 mg QD) | Subjects with 1 or more Serious adverse events (through Week 56, 25 mg QD) | Subjects with 1 or more Serious adverse events: COVID-19 (through Week 56, 25 mg QD) | Subjects with 1 or more Serious adverse events: Cerebrovascular accident (through Week 56, 25 mg QD) | Subjects with 1 or more Serious adverse events: Coronary artery disease (through Week 56, 25 mg QD) | Subjects with 1 or more Serious adverse events: Diverticulitis (through Week 56, 25 mg QD) | Subjects with 1 or more Serious adverse events: Foot deformity (through Week 56, 25 mg QD) | Subjects with 1 or more Serious adverse events: Infected cyst (through Week 56, 25 mg QD) | Subjects with 1 or more Serious adverse events: Intervertebral disc protrusion (through Week 56, 25 mg QD) | Subjects with 1 or more Serious adverse events: Ligament injury (through Week 56, 25 mg QD) | Subjects with 1 or more Serious adverse events: Non-cardiac chest pain (through Week 56, 25 mg QD) | Subjects with 1 or more Serious adverse events: Suicide attempt (through Week 56, 25 mg QD) | Subjects with 1 or more Serious adverse events: Tonsillar hypertrophy (through Week 56, 25 mg QD) | Subjects with 1 or more Serious adverse events: Uterine leiomyoma (through Week 56, 25 mg QD) | Subjects with 1 or more Serious adverse events: Ventricular dysfunction (through Week 56, 25 mg QD) | Subjects with 1 or more Serious adverse events: COVID-19 (through Week 56, 50 mg QD) | Subjects with 1 or more Serious adverse events: Cerebrovascular accident (through Week 56, 50 mg QD) | Subjects with 1 or more Serious adverse events: Diverticulitis (through Week 56, 50 mg QD) | Subjects with 1 or more Serious adverse events: Intervertebral disc protrusion (through Week 56, 50 mg QD) | Subjects with 1 or more Serious adverse events: Ligament injury (through Week 56, 50 mg QD) | Subjects with 1 or more Serious adverse events: Suicide attempt (through Week 56, 50 mg QD)
24: Subjects with 1 or more Adverse events (through Week 56, 25 mg QD)
(25.7%): Nasopharyngitis: % of subjects [2]
(5.7%): Renal and urinary disorders: % of subjects [1] | Skin and subcutaneous tissue disorders: % of subjects [1]
6: Subjects with 1 or more Adverse events: COVID-19 (through Week 56, 25 mg QD) | Subjects with 1 or more Adverse events: COVID-19 (through Week 56, 50 mg QD)
(2.9%): Respiratory, thoracic and mediastinal disorders: % of subjects [1] | Retinal vein occlusion: % of subjects [1] | Vascular disorders: % of subjects [1]
2: Renal and urinary disorders: number of subjects [1] | Skin and subcutaneous tissue disorders: number of subjects [1] | Subjects with 1 or more Adverse events: Bronchitis (through Week 56, 25 mg BID) | Subjects with 1 or more Adverse events: Diarrhea (through Week 56, 25 mg BID) | Subjects with 1 or more treatment-emergent adverse events leading to discontinuation of study agent (through Week 56, 25 mg BID) | Subjects with 1 or more Adverse events: Bronchitis (through Week 56, 25 mg QD) | Subjects with 1 or more Adverse events: Diarrhea (through Week 56, 25 mg QD) | Subjects with 1 or more Adverse events: Headache (through Week 56, 25 mg QD) | Subjects with 1 or more Adverse events: Urinary tract infection (through Week 56, 25 mg QD) | Subjects with 1 or more Adverse events: Cough (through Week 56, 50 mg QD)
7: Subjects with 1 or more Adverse events: Upper respiratory tract infection (through Week 56, 25 mg QD)
13: Subjects with 1 or more Adverse events: Nasopharyngitis (through Week 56, 50 mg QD)
5.3%: COVID-19 [3]
41.9%: Infections and infestations AEs (all groups, long-term extension)
4: Number of participants who discontinued study intervention due to one or more AEs (long-term extension) | Subjects with 1 or more Adverse events: Bronchitis (through Week 56, 50 mg QD) | Subjects with 1 or more Adverse events: Diarrhea (through Week 56, 50 mg QD)
32: Subjects with 1 or more Adverse events (through Week 56, 25 mg BID) | Subjects with 1 or more Adverse events (through Week 56, 50 mg QD)
9: Subjects with 1 or more Adverse events: COVID-19 (through Week 56, 25 mg BID)
8: Subjects with 1 or more Adverse events: Nasopharyngitis (through Week 56, 25 mg BID)
4.0%: Participants with one or more serious adverse events (long-term extension)
3: Subjects with 1 or more Adverse events: Headache (through Week 56, 25 mg BID) | Subjects with 1 or more Adverse events: Influenza (through Week 56, 25 mg BID) | Subjects with 1 or more Adverse events: Upper respiratory tract infection (through Week 56, 25 mg BID) | Subjects with 1 or more Serious adverse events (through Week 56, 25 mg BID) | Subjects with 1 or more Adverse events: Nasopharyngitis (through Week 56, 25 mg QD) | Subjects with 1 or more treatment-emergent adverse events leading to discontinuation of study agent (through Week 56, 25 mg QD) | Subjects with 1 or more Adverse events: Upper respiratory tract infection (through Week 56, 50 mg QD) | Subjects with 1 or more Serious adverse events (through Week 56, 50 mg QD)
58.600: Participants experiencing 1 or more AEs [3]
well-tolerated: Tolerability (all treatment groups, long-term extension)
18.1%: Nasopharyngitis [3]
(10.5%): Investigations (system organ class): % of subjects [2]
1: Respiratory, thoracic and mediastinal disorders: number of subjects [1] | Retinal vein occlusion: number of subjects [1] | Vascular disorders: number of subjects [1] | Subjects with 1 or more Adverse events: Alanine aminotransferase increased (through Week 56, 25 mg BID) | Subjects with 1 or more Adverse events: Aspartate aminotransferase increased (through Week 56, 25 mg BID) | Subjects with 1 or more Adverse events: Urinary tract infection (through Week 56, 25 mg BID) | Subjects with 1 or more Serious adverse events: Ligament injury (through Week 56, 25 mg BID) | Subjects with 1 or more Serious adverse events: Tonsillar hypertrophy (through Week 56, 25 mg BID) | Subjects with 1 or more Serious adverse events: Ventricular dysfunction (through Week 56, 25 mg BID) | Subjects with 1 or more Adverse events: Alanine aminotransferase increased (through Week 56, 25 mg QD) | Subjects with 1 or more Adverse events: Arthralgia (through Week 56, 25 mg QD) | Subjects with 1 or more Adverse events: Aspartate aminotransferase increased (through Week 56, 25 mg QD) | Subjects with 1 or more Adverse events: Cough (through Week 56, 25 mg QD) | Subjects with 1 or more Adverse events: Alanine aminotransferase increased (through Week 56, 50 mg QD) | Subjects with 1 or more Adverse events: Arthralgia (through Week 56, 50 mg QD) | Subjects with 1 or more Adverse events: Aspartate aminotransferase increased (through Week 56, 50 mg QD) | Subjects with 1 or more Adverse events: Headache (through Week 56, 50 mg QD) | Subjects with 1 or more Adverse events: Influenza (through Week 56, 50 mg QD) | Subjects with 1 or more Adverse events: Urinary tract infection (through Week 56, 50 mg QD) | Subjects with 1 or more Serious adverse events: Coronary artery disease (through Week 56, 50 mg QD) | Subjects with 1 or more Serious adverse events: Foot deformity (through Week 56, 50 mg QD) | Subjects with 1 or more Serious adverse events: Infected cyst (through Week 56, 50 mg QD) | Subjects with 1 or more Serious adverse events: Non-cardiac chest pain (through Week 56, 50 mg QD)

— US20260232767A1, “INTERLEUKIN-23 RECEPTOR ANTAGONIST PEPTIDES FOR USE IN THE TREATMENT OF PSORIASIS” (Janssen Pharmaceutica NV, priority 2023, published 2026)
